# Measurements: patent publication US10428115B2, “Dynorphin A analogs with bradykinin receptors specificity for modulation of neuropathic pain” (THE ARIZONA BOARD OF REGENTS ON BEHALF OF THE UNIVERSITY OF …, priority 2013, dated 2019)
# Read-outs that look alike come from different tables or passages of the source. Square brackets hold non-standard residues; d marks the D form. Ends that are not written are not given here. Nle = CCCC[C@H](N)C(=O)O
# Columns and labels:
# naive rats = assay: Motor function and paralysis after intrathecal injection (hindlimb tests, tail-flick) in naive rats; format: in vivo, rat; details: for motor function after intrathecal (spinal) injection: naive rats
# Method: Intrathecal (i.th.) catheterization. While under ketamine/xylazine (80/12 mg/kg, i.p.) anesthesia, some groups of rats were implanted with i.th. catheters (polyethylene 10, 7.8 cm) through atlanto-occipital membrane extended to the level of the lumbar spinal cord for drug administration. Animals were allowed to recover for 7 days. Drugs were injected in a volume of 5 μl, followed by a 1 μl air bubble and a 9 μl saline flush.
# Tail-flick test. The hot-water tail-flick test was performed by placing the distal third of the tail in a water bath maintained at 52° C. The latency until tail withdrawal from the bath was determined and compared among the treatments. A 10 sec cutoff was used to avoid tissue damage. Data were converted to percentage of antinociception by the following formula: (response latency−baseline latency)/(cutoff−baseline latency)*100.
# [1] = target: rat brain bradykinin receptors; assay: Radioligand competition binding against [3H]DALKD in rat brain membranes; details: for IC50: [3H]DALKD
# Method: Binding affinities of dynorphin A analogs at the bradykinin receptors were determined by radioligand competition analysis using [^3H]DALKD or [^3H]BK in rat brain membranes or transfected HEK 293 cells expressing the human B2R. Crude rat brain membranes were pelleted and resuspended in 50 mM Tris buffer containing 50 μg/mL bacitracin, 10 μM captopril, 100 μM PMSF, and 5 mg/mL BSA. 10 concentrations of a test compound were each incubated with 50 μg of membranes and [^3H]DALKD (1 nM, 76.0 Ci/mmol) or [^3H]BK (1 nM, 85.4 Ci/mmol) at 25° C. for 2 h. Non-specific binding was defined by that in the presence of […] KD in all assays. Reactions were terminated by rapid filtration through Whatman GF/B filters presoaked in 1% polyethyleneimine, followed with four washes of 2 mL cold saline. Radioactivity was determined by liquid scintillation counting in a Beckman LS5000 TD. Data were analyzed by non-linear least squares analysis using GraphPad Prism (Version 4). […]
# SNL rats = assay: Reversal of thermal hyperalgesia and tactile hypersensitivity in SNL rats (neuropathic pain model); format: in vivo, rat
# [2] = test system: bradykinin-induced plasma extravasation; assay: Bradykinin-induced rat paw oedema and plasma extravasation, intraplantar injection; format: in vivo
# Method: Experiments were conducted on non-fasted male Sprague-Dawley rats (250-300 g) kept in a room controlled for temperature (22±2° C.) and illumination (12 h on and 12 h off). Under ketamine/xylazine (80/12 mg/kg, i.p.) anesthesia animals received an injection of Evans Blue (30 mg/mL/kg, i.v.) via tail vein and baseline paw volume for both hindpaws was measured by use of a plethysmometer (Ugo Basile). Animals then received 0.1 mL i.pl. injections in one hindpaw of normal saline (0.9% NaCl) containing BK either alone or mixed with HOE140 or LYS1044 (10 nmol/paw each). The contralateral paw received 0.1 mL saline and was used as a control. Oedema was measured at several 30, 60 and 90 min post i.pl. injections and expressed in mL as the difference (mL) between the test and control paws. Three hours post BK injections, animals were sacrificed and patches (10×5 mm) of the dorsal skin from both hindpaws were collected. The skin patches were then incubated separately in Eppendorf tubes containing 1.8 mL formamide at 60° C. water bath for 24 h to extract the dye. The tissue extraction was then centrifuged at 15000 rpm for 15 min and the supernatant was pipetted to a 96 well plate as triplicates and the absorbance was determined at 620 nm. The difference of the mean absorbance between the two hindpaws of each rat was used to compare the degree of plasma extravasation in different treatment groups.
# [3] = Stability in plasma (t1/2)
# guinea pig ileum = details: compared with the enkephalins and β-endorphin; cited from earlier work
# [4] = Table 1, brain bradykinin receptors, pH 6.8, read-out: IC50 (nM) at pH 6.8, n ≥ 2
# [5] = Table 1, brain bradykinin receptors, pH 7.4, read-out: IC50 (nM) at pH 7.4, n ≥ 2
# [6] = Table 6, rat brain bradykinin receptors, pH 6.8, read-out: IC50 (nM), cell marked at pH 6.8
# [7] = Table 6, rat brain bradykinin receptors, pH 7.4, read-out: IC50 (nM) at pH 7.4, N > 2
# [8] = Table 4, rat brain bradykinin receptors, pH 7.4, read-out: IC50 (nM) at pH 7.4, N > 2
# [9] = Table 3, rat brain bradykinin receptors, pH 7.4, read-out: IC50 (nM) at pH 7.4, N > 2
# [10] = Table 5, rat brain bradykinin receptors, pH 6.8, read-out: IC50 (nM), cell marked at pH 6.8
# [11] = Table 2, rat brain bradykinin receptors, pH 7.4, read-out: IC50 (nM) at pH 7.4, n > 2
# [12] = Table 5, rat brain bradykinin receptors, pH 7.4, read-out: IC50 (nM) at pH 7.4, N > 2
molecule,measurement,setting,value
"CC[C@H](C)[C@H](NC(=O)[C@H](CCCNC(=N)N)NC(=O)[C@H](CCCNC(=N)N)NC(=O)[C@H](CC(C)C)NC(=O)[C@H](Cc1ccccc1)NC(=O)CNC(=O)CN)C(=O)N[C@@H](CCCNC(=N)N)C(=O)N1CCC[C@H]1C(=O)N[C@@H](CCCCN)C(=O)N[C@@H](CC(C)C)C(=O)N[C@@H](CCCCN)C(=O)O [Dyn (2-13), Gly-Gly-Phe-Leu-Arg-Arg-Ile-Arg-Pro-Lys-Leu-Lys, reference compound]",motor function after intrathecal (spinal) injection,naive rats,produces disturbances of motor function and antinociception
same,IC50,[1]; [4],21 nM
same,IC50,[1]; [5],170 nM
"CC[C@H](C)[C@H](NC(=O)[C@H](CCCNC(=N)N)NC(=O)[C@H](CC(C)C)NC(=O)[C@@H](N)Cc1ccccc1)C(=O)N[C@@H](CCCNC(=N)N)C(=O)N1CCC[C@H]1C(=O)N[C@@H](CCCCN)C(=O)O [LYS1044, Phe-Leu-Arg-Ile-Arg-Pro-Lys]",motor function after intrathecal (spinal) injection,naive rats,does not produce motor impairment
same,prevention of dynorphin A-(2-13)-induced paralysis,naive rats; spinal administration,prevents dynorphin A-(2-13)-induced paralysis
same,anti-allodynic effect,SNL rats; tactile hypersensitivity,anti-allodynic effects
same,anti-hyperalgesic effect,SNL rats; thermal hyperalgesia,dose dependent anti-hyperalgesic
same,toxic effect on rotarod experiment,Rotarod experiment,no toxic effect
same,changes in paw volume,[2],does not show changes in paw volume
same,prevention of bradykinin-induced plasma extravasation,[2],does not prevent bradykinin-induced plasma extravasation
same,half-life,[3],< 3 h
CC[C@H](C)[C@H](NC(=O)[C@H](CCCNC(=N)N)NC(=O)[C@@H](CC(C)C)NC(=O)[C@@H](N)Cc1ccccc1)C(=O)N[C@@H](CCCNC(=N)N)C(=O)N1CCC[C@H]1C(=O)N[C@@H](CCCCN)C(=O)O [SH145],IC50,[1]; [6],99 nM
same,binding affinity at bradykinin receptors (in words),[1]; rat brain bradykinin receptors,retained the same high binding affinity as LYS1044
same,half-life,[3],> 24 h
AN101: modified dynorphin A analog; Table 6 prints only the change: Nle at position 8 (FLR[Nle]RPK),IC50,[1]; [7],140 nM
"AN108-1: dynorphin A analog; Table 4 prints only changes: Ac- at 4, Nle at 5, Nle at 8, Arg at 11 (Ac-F[Nle]R[Nle]RPR)",IC50,[1]; [8],140 nM
"AN108-4: dynorphin A analog; Table 4 prints only changes: Ac-DPhe at 4, Nle at 5, Nle at 8, Arg at 11 (Ac-[dF][Nle]R[Nle]RPR)",IC50,[1]; [8],54 nM
"AN109: dynorphin A analog; Table 4 prints only changes: Ac- in Gly^3 column, Nle at 5, Nle at 8, Arg at 11 (Ac-GF[Nle]R[Nle]RPR)",IC50,[1]; [8],210 nM
Ac-Phe-Leu-Arg-Ile-Arg-Pro-DLys (Ac-FLRIRP[dK]) [AP111],IC50,[1]; [9],550 nM
FIRIRPR [AN105],IC50,[1]; [7],110 nM
"FLRIRPK [AP107-1, Ac-Phe-Leu-Arg-Ile-Arg-Pro-Lys]",IC50,[1]; [9],120 nM
same,IC50,[1]; [8],120 nM
FLRIRPR [AN104],IC50,[1]; [8],210 nM
same,IC50,[1]; [7],210 nM
FLRLRPR [AN106],IC50,[1]; [7],100 nM
"FLRRIRPK [Analogs S1F, Phe-Leu-Arg-Arg-Ile-Arg-Pro-Lys-NH2]",IC50,[1]; [9],6800 nM
"FLRRIRPK [LYS1026, Phe-Leu-Arg-Arg-Ile-Arg-Pro-Lys]",IC50,[1]; [4],69 nM
same,IC50,[1]; [5],140 nM
same,IC50,[1]; [9],140 nM
"FLRRIRRPK [SH114, Phe-Leu-Arg-Arg-Ile-Arg-Arg-Pro-Lys]",IC50,[1]; [10],74 nM
"GFLR [LYS1031, Gly-Phe-Leu-Arg-NH2]",IC50,[1]; [9],> 10000 nM
"GFLR [LYS1035, Gly-Phe-Leu-Arg]",IC50,[1]; [11],950 nM
same,IC50,[1]; [9],950 nM
"GFLRIR [Analogs J101, Gly-Phe-Leu-Arg-Ile-Arg]",IC50,[1]; [12],620 nM
"GFLRIRPK [LYS1045, Gly-Phe-Leu-Arg-Ile-Arg-Pro-Lys]",IC50,[1]; [12],130 nM
"GFLRIRPKLK [LYS1042, Gly-Phe-Leu-Arg-Ile-Arg-Pro-Lys-Leu-Lys]",IC50,[1]; [4],26 nM
same,IC50,[1]; [5],41 nM
same,IC50,[1]; [12],43 nM
"GFLRR [BP006D, Gly-Phe-Leu-Arg-Arg]",IC50,[1]; [11],8100 nM
"GFLRRI [LYS1004, Gly-Phe-Leu-Arg-Arg-Ile]",IC50,[1]; [11],2300 nM
"GFLRRIR [Analogs J104, Gly-Phe-Leu-Arg-Arg-Ile-Arg]",IC50,[1]; [11],780 nM
"GFLRRIRP [BP1004D, Gly-Phe-Leu-Arg-Arg-Ile-Arg-Pro]",IC50,[1]; [11],1200 nM
"GFLRRIRPK [LYS1027, Gly-Phe-Leu-Arg-Arg-Ile-Arg-Pro-Lys]",IC50,[1]; [11],130 nM
"GFLRRIRPKL [LYS1024, Gly-Phe-Leu-Arg-Arg-Ile-Arg-Pro-Lys-Leu]",IC50,[1]; [11],280 nM
"GFLRRIRPKLK [LYS1021, Gly-Phe-Leu-Arg-Arg-Ile-Arg-Pro-Lys-Leu-Lys]",IC50,[1]; [11],320 nM
"GGFLRIRPKLK [CYF103, Gly-Gly-Phe-Leu-Arg-Ile-Arg-Pro-Lys-Leu-Lys]",IC50,[1]; [4],41 nM
same,IC50,[1]; [10],41 nM
"IRPKL [RK107, Ile-Arg-Pro-Lys-Leu-NH2]",IC50,[1]; [9],8700 nM
"IRPKLK [LYS1039, Ile-Arg-Pro-Lys-Leu-Lys]",IC50,[1]; [4],63 nM
same,IC50,[1]; [5],81 nM
"LRIRPK [LYS1043, Leu-Arg-Ile-Arg-Pro-Lys]",IC50,[1]; [12],180 nM
"LRIRPKLK [LYS1040, Leu-Arg-Ile-Arg-Pro-Lys-Leu-Lys]",IC50,[1]; [4],30 nM
same,IC50,[1]; [5],68 nM
same,IC50,[1]; [12],68 nM
"LRRIRPKL [LYS1022, Leu-Arg-Arg-Ile-Arg-Pro-Lys-Leu]",IC50,[1]; [9],7100 nM
"LYS1107: modified dynorphin A analog; Table 6 prints only the change: Nle at position 12 (PK[Nle]K; ends and bridges not checked; also: modified dynorphin A analog, full sequence beyond listed fragment not given here)",IC50,[1]; [7],72 nM
"PKLK [LYS1038, Pro-Lys-Leu-Lys]",IC50,[1]; [4],210 nM
same,IC50,[1]; [5],120 nM
"RIRPKL [RK108, Arg-Ile-Arg-Pro-Lys-Leu-NH2]",IC50,[1]; [9],6300 nM
"RIRPKLK [LYS1114, Arg-Ile-Arg-Pro-Lys-Leu-Lys]",IC50,[1]; [4],72 nM
"RPKLK [LYS1113, Arg-Pro-Lys-Leu-Lys]",IC50,[1]; [4],58 nM
"SH124: modified dynorphin A analog; Table 6 prints only changes: Nle at 8, Lys at 9, Nle at 12 ([Nle]KPK[Nle]K; ends and bridges not checked; also: modified dynorphin A analog, full sequence beyond listed fragment not given here)",IC50,[1]; [6],78 nM
Tyr-Gly-Gly-Phe-Leu-Arg-Arg-Ile-Arg-Pro-Lys-Leu-Lys (YGGFLRRIRPKLK; listed as Homo sapiens) [dynorphin A-(1-13)],activity in guinea pig ileum test,guinea pig ileum,substantially more active than the enkephalins and β-endorphin
WLRIRPK [AN103],IC50,[1]; [7],190 nM
